The values that follow come from US20150133411A1, “COMPOUNDS WITH TRPV4 ACTIVITY, COMPOSITIONS AND ASSOCIATED METHODS THEREOF” (The University of Utah Research Foundation, priority 2012, published 2015).

This experiment relates to retinal ganglion cell. Kind of experiment: High-Speed Pressure Clamp, pressure-induced inward currents. The class given is cell-based. The note with it: voltage-clamped retinal ganglion cell, pressure steps 10 to 50 mm Hg. As for the experimental part: The cell was voltage clamped and stimulated with the High-Speed Pressure Clamp method, as detailed by Besch et al (Pflugers Arch. 2002 October; 445(1):161-6). This method consists of a specialized headstage coupled to a piezo element in the pressure/vacuum control valve. By balancing the access of pressure to the patch pipette, the device generates rapid and reproducible pressure steps of >±200 mm Hg. Channel activity is recorded in the cell-attached mode or the membrane is “zapped” into the outside-out configuration.

As to `Cc1c(C(=O)Nc2cccc(C(F)(F)F)c2)cc(-c2ccccc2)n1CCCN1CCOCC1` [Compound 1, N-(3-(trifluoromethyl)phenyl)-2-methyl-1-(3-morpholinopropyl)-5-phenyl-1H-pyrrole-3-carboxamide], the pressure-induced inward currents result was “reversibly antagonized”.
